Measured values published in paper PMC9423655, “Huntington’s disease phenotypes are improved via mTORC1 modulation by small molecule therapy” (PLoS ONE, 2022).

How the values were obtained:
mTORC1 pathway (pS6) = assay: pS6 immunoblot of striatum and heart after one week of oral dosing in N171-82Q HD mice; type: in vivo; settings: N171-82Q mice, oral 160 mg/kg daily for one week
Method: The initial trial consisted in one week of oral dosing in 12 weeks old N171-82Q males. The chronic 6 weeks treatment (Veh n = 15, NV-5297 n = 14) took place from 6 to 12 weeks of age. The cardiac stress took place in animals from 10 to 12 weeks of age (Veh-Sal n = 9, NV-Sal n = 10, Veh-Iso n = 16, NV-Iso n = 11).
Specific regions of the brain and heart were homogenized using a Next Advance Bullet Blender Storm in Lysis Buffer (Cell lysis buffer: 1% Triton X-100, 50 mM HEPES pH 7.4, 100 mM sodium chloride, 2 mM EDTA, 10 mM Beta-glycerophosphate, 10 mM Sodium pyrophosphate, and 1 protease inhibitor) at 4°C. Lysates were cleared by centrifugation at 13,200 rpm at 4°C for 10 minutes. Equal amounts of total protein from each sample were denatured and, resolved by SDS-PAGE. Membranes were imaged using the LI-COR imaging system. Proteins levels are normalized to tubulin, actin or GAPDH levels and further normalized to vehicle treated mice for each tissue.
Supplementary file pone.0273710.s002.tiff: S2 Fig Activation of the mTORC1 pathway in mice striatum and heart after oral dosing with NV-5297. (A) Representative immunoblot for the phosphorylated (^S240/244pS6), S6 and actin or tubulin in the striatum and heart of N171-82Q wild-type (WT) mice or N171-82Q HD mice respectively collected 1 hour after the last dose of a week of oral dosing with vehicle (Veh) or NV-5297 (160 mg/kg; A). Quantification of levels of ^S240/244pS6 in the striatum (B) and the heart (C) normalized to loading control levels and further normalized to untreated WT mice. Data are presented as mean ± SEM. **P ≤ 0.01, ***P ≤ 0.001 and ****P ≤ 0.0001 (Kruskal-Wallis test with Dunn’s multiple comparison tests). (TIFF) Click here for additional data file.

SesnTKO HEK293T cells = assay: mTORC1 activation (p70S6K1) in HEK293T cells null for all three Sestrin isoforms; type: cell-based; settings: leucine-starved 50 minutes, treatment 10 minutes
Method: All cell lines were cultured in DMEM (Corning, #MT10013CV) supplemented with 10% heat-inactivated FBS (Gibco, #16140–071). All cell lines were maintained at 37°C and 5% CO2. For amino acid starvation, cells were rinsed once with and incubated Amino acid-free RPMI (US Biologicals, #R8999-04A) supplemented with 10% dialyzed FBS (Gibco, #26400044) for 50 min followed by treatment with NV-5297, leucine, or vehicle for 10 minutes. For leucine starvation, cells were rinsed once with and incubated in leucine-free DMEM (AthenaES, #0420) supplemented with 10% dialyzed FBS (Gibco, #26400044) for 50 minuted followed by treatment with NV-5297, leucine, or vehicle for 10 minutes.
To ascertain if Sestrins and the GATOR pathway are required for NV-5297 activity, we tested mTORC1 activation in cells null for either all three Sestrin isoforms [SesnTKO] or for the GATOR1 component Npr13 [Npr13KO] [44]. […]
(A) Activation of the mTORC1 pathway by NV-5297. […] Representative immunoblots of ^T389pS6K1 and quantification of the normalized level of ^T389pS6K1 from 8 independent experiments (F) show TORC1 activity in unedited HEK-293T cells, HEK-293T cells deficient for Sestrin 1 (Sesn1), 2 (Sesn2) and 3 (Sesn3) (D) or HEK-293T cells deficient for the GATOR1 component Nprl3 (E) after 50 minutes leucine starvation followed by the addition of vehicle, NV-5297 or leucine for 10 minutes. […]

CC(C)(C[C@H](N)C(=O)O)C(F)(F)F [NV-5297, (S)-2-amino-5,5,5-trifluoro-4,4-dimethylpentanoic acid]
pS6 in heart relative to vehicle (mTORC1 pathway (pS6)): increased
pS6 in striata relative to vehicle (mTORC1 pathway (pS6)): increased
ratio of pS6 level in striatum and heart compared with age-matched WT mice (mTORC1 pathway (pS6)): normalized
p70S6K1 levels (SesnTKO HEK293T cells): remained unchanged
